The results in this text go back to publication PMC6237300, “Influenza B viruses circulated during last 5 years in Mongolia” (PLoS ONE, 2018).

The structures appear in SMILES notation.

For this test, the target named is NA of influenza B clinical isolates (Influenza B virus, UniProt A0A1X9RX69). It is filed as biochemical.

Broadly, the IC50 is the point on the concentration scale where inhibition reaches its midpoint. A higher IC50 goes with weaker potency. As for `CCC(CC)[C@H](NC(C)=O)[C@@H]1[C@H](O)[C@@H](C(=O)O)C[C@H]1N=C(N)N` [Peramivir, peramivir], the midpoint of inhibition, the IC50, lay at 0.47 ± 0.4 nM.
